Data from ChEMBL document CHEMBL4673364, “Synthesis and cytotoxic activity of new 7-acetoxy-12-amino-14-deoxy andrographolide analogues” (Bioorg Med Chem Lett, 2021).

Experiments:
A549 = test: Cytotoxicity against human A549 cells assessed as reduction in cell viability by SRB assay; format: functional, cell-based
[1] = Cytotoxicity against rat ASK cells assessed as reduction in cell viability by SRB assay; format: functional, cell-based
[2] = Cytotoxicity against human K213 cells assessed as reduction in cell viability by SRB assay; format: functional, cell-based
[3] = Cytotoxicity against human K055 cells assessed as reduction in cell viability by SRB assay; format: functional, cell-based
MCF7 [4] = test: Cytotoxicity against human MCF7 cells assessed as reduction in cell viability by SRB assay; format: functional, cell-based
KB = test: Cytotoxicity against human KB cells assessed as reduction in cell viability by SRB assay; format: functional, cell-based
HT-29 = test: Cytotoxicity against human HT-29 cells assessed as reduction in cell viability by SRB assay; format: functional, cell-based
[5] = Cytotoxicity against human P388 cells assessed as reduction in cell viability by SRB assay; format: functional, cell-based
MCF7 [6] = test: Potency index, ratio of andrographolide IC50 to test compound IC50 for cytotoxicity against human MCF7 cells; format: functional

Compound | IC50 (A549) | IC50 [1] | IC50 [2] | IC50 [3] | IC50 (MCF7 [4]) | IC50 (KB) | IC50 (HT-29) | IC50 [5] | Ratio IC50 (MCF7 [6])
C=C1CC[C@@H]2[C@](C)(CO[Si](C)(C)C(C)(C)C)[C@H](OC(C)=O)CC[C@@]2(C)[C@@H]1C/C=C1/C(=O)OC[C@H]1OC(C)=O | 3.99 µM | 2.41 µM | 38.7 µM | 44.3 µM | 4.84 µM | 5.05 µM | 4.69 µM | 0.3 µM | 
C=C1[C@@H](OC(C)=O)C[C@@H]2[C@](C)(COC=O)[C@H](OC(C)=O)CC[C@@]2(C)[C@@H]1C[C@@H](Nc1ccccc1C(=O)O)C1=CCOC1=O | 45.9 µM | > 50 µM | 42.6 µM | 40.4 µM | 30.8 µM | 42.5 µM | 28.7 µM | 9.11 µM | 
C=C1[C@@H](OC(C)=O)C[C@@H]2[C@](C)(COC=O)[C@H](OC(C)=O)CC[C@@]2(C)[C@@H]1C[C@@H](Nc1ccc(F)cc1)C1=CCOC1=O | 21.2 µM | 38.6 µM | 30.2 µM | 25.8 µM | 12.4 µM | 22.9 µM | 20.5 µM | 6.31 µM | 
C=C1[C@@H](OC(C)=O)C[C@@H]2[C@](C)(COC=O)[C@H](OC(C)=O)CC[C@@]2(C)[C@@H]1C[C@@H](Nc1cccc2ccccc12)C1=CCOC1=O | 35.6 µM | > 50 µM | 31.3 µM | 28.8 µM | 9.75 µM | 32.3 µM | 8.67 µM | 6.49 µM | 
C=C1[C@@H](OC(C)=O)C[C@@H]2[C@](C)(COC=O)[C@H](OC(C)=O)CC[C@@]2(C)[C@@H]1C[C@@H](Nc1ccc(O)cc1)C1=CCOC1=O | 29.1 µM | 24.2 µM | 27.1 µM | 28.6 µM | 18.1 µM | 28.9 µM | 13.4 µM | 4.4 µM | 
C=C1[C@@H](OC(C)=O)C[C@@H]2[C@](C)(CO[Si](C)(C)C(C)(C)C)[C@H](OC(C)=O)CC[C@@]2(C)[C@@H]1C[C@@H](Nc1ccc(OC)c(OC)c1)C1=CCOC1=O | 4.87 µM | 4.95 µM | 5.15 µM | 5.73 µM | 4.31 µM | 5.8 µM | 5.33 µM | 4.53 µM | 
C=C1[C@@H](OC(C)=O)C[C@@H]2[C@](C)(CO[Si](C)(C)C(C)(C)C)[C@H](OC(C)=O)CC[C@@]2(C)[C@@H]1C[C@@H](Nc1ccc(C(=O)O)cc1)C1=CCOC1=O | 4.21 µM | 4.31 µM | 6.75 µM | 4.88 µM | 3.99 µM | 5.54 µM | 4.63 µM | 4.18 µM | 7
C=C1[C@@H](OC(C)=O)C[C@@H]2[C@](C)(COC=O)[C@H](OC(C)=O)CC[C@@]2(C)[C@@H]1C[C@@H](Nc1ccc(Br)cc1)C1=CCOC1=O | 15.8 µM | 49.9 µM | 25.4 µM | 24.4 µM | 11.4 µM | 24 µM | 13.2 µM | 4.95 µM | 
C=C1[C@@H](OC(C)=O)C[C@@H]2[C@](C)(COC=O)[C@H](OC(C)=O)CC[C@@]2(C)[C@@H]1C/C=C1/C(=O)OC[C@H]1OC(C)=O | 19 µM | 19.2 µM | 20.8 µM | 15.3 µM | 12.9 µM | 21.6 µM | 8.29 µM | 4.55 µM | 
C=C1[C@@H](OC(C)=O)C[C@@H]2[C@](C)(COC=O)[C@H](OC(C)=O)CC[C@@]2(C)[C@@H]1C[C@H](C1=CCOC1=O)N1CCOCC1 | > 50 µM | 34.4 µM | 31.7 µM | 33.7 µM | 43.6 µM | > 50 µM | 35.1 µM | 29.2 µM | 
C=C1[C@@H](OC(C)=O)C[C@@H]2[C@](C)(CO[Si](C)(C)C(C)(C)C)[C@H](OC(C)=O)CC[C@@]2(C)[C@@H]1C[C@@H](Nc1ccc(O)cc1)C1=CCOC1=O | 5.09 µM | 5 µM | 9.25 µM | 5.95 µM | 5.22 µM | 8.35 µM | 6.14 µM | 5.03 µM | 
C=C1[C@@H](C/C=C2/C(=O)OC[C@H]2OC(C)=O)[C@]2(C)CC[C@@H](OC(C)=O)[C@@](C)(CO[Si](C)(C)C(C)(C)C)[C@H]2C[C@@H]1O | 6.85 µM | 5.97 µM | 24 µM | 19.9 µM | 6.96 µM | 9.79 µM | 9.31 µM | 0.9 µM | 
C=C1[C@@H](OC(C)=O)C[C@@H]2[C@](C)(CO[Si](C)(C)C(C)(C)C)[C@H](OC(C)=O)CC[C@@]2(C)[C@@H]1C[C@@H](Nc1ccc(OC)cc1)C1=CCOC1=O | 4.81 µM | 4.56 µM | 5.2 µM | 5.6 µM | 4.28 µM | 5.63 µM | 5.37 µM | 4.03 µM | 
C=C1[C@@H](OC(C)=O)C[C@@H]2[C@](C)(CO[Si](C)(C)C(C)(C)C)[C@H](OC(C)=O)CC[C@@]2(C)[C@@H]1C[C@@H](Nc1cccc(OC)c1)C1=CCOC1=O | 17.2 µM | 39.7 µM | 40.1 µM | 44 µM | 28.1 µM | 45.2 µM | > 50 µM | 27.8 µM | 
C=C1[C@@H](OC(C)=O)C[C@@H]2[C@](C)(CO[Si](C)(C)C(C)(C)C)[C@H](OC(C)=O)CC[C@@]2(C)[C@@H]1C[C@@H](Nc1cccc2ccccc12)C1=CCOC1=O | 4.97 µM | 6.33 µM | 15.3 µM | 6.72 µM | 5.77 µM | 8.93 µM | 15 µM | 5.74 µM | 
C=C1[C@@H](OC(C)=O)C[C@@H]2[C@](C)(COC=O)[C@H](OC(C)=O)CC[C@@]2(C)[C@@H]1C[C@@H](Nc1ccc(C(=O)O)cc1)C1=CCOC1=O | > 50 µM | > 50 µM | > 50 µM | 48.3 µM | 41.6 µM | > 50 µM | 37.2 µM | 22.2 µM | 
C=C1[C@@H](OC(C)=O)C[C@@H]2[C@](C)(COC=O)[C@H](OC(C)=O)CC[C@@]2(C)[C@@H]1C[C@@H](Nc1cccc(F)c1)C1=CCOC1=O | 23.2 µM | 35.8 µM | 27.2 µM | 29.2 µM | 14.1 µM | 28.6 µM | 9.41 µM | 5.53 µM | 
C=C1[C@@H](OC(C)=O)C[C@@H]2[C@](C)(CO[Si](C)(C)C(C)(C)C)[C@H](OC(C)=O)CC[C@@]2(C)[C@@H]1C[C@H](C1=CCOC1=O)N1CCOCC1 | 24.8 µM | 26.3 µM |  | 28.3 µM | 31.6 µM | 35.7 µM | 37.6 µM | 20.4 µM | 
C=C1[C@@H](OC(C)=O)C[C@@H]2[C@](C)(COC=O)[C@H](OC(C)=O)CC[C@@]2(C)[C@@H]1C[C@@H](Nc1ccc(OC)cc1)C1=CCOC1=O | 28.9 µM | > 50 µM | 40.9 µM | 33.2 µM | 24.2 µM | 32.7 µM | 25.4 µM | 7.9 µM | 
C=C1[C@@H](OC(C)=O)C[C@@H]2[C@](C)(CO[Si](C)(C)C(C)(C)C)[C@H](OC(C)=O)CC[C@@]2(C)[C@@H]1C[C@@H](Nc1ccccc1F)C1=CCOC1=O | 3.19 µM | 3.69 µM | 5.45 µM | 5.19 µM | 2.93 µM | 4.74 µM | 3.71 µM | 3.14 µM | 7
C=C1[C@@H](OC(C)=O)C[C@@H]2[C@](C)(COC=O)[C@H](OC(C)=O)CC[C@@]2(C)[C@@H]1C[C@@H](Nc1ccccc1F)C1=CCOC1=O | 23.6 µM | 31.6 µM | 31 µM | 30.3 µM | 16.4 µM | 29 µM | 9.76 µM | 5.97 µM | 
C=C1[C@@H](OC(C)=O)C[C@@H]2[C@](C)(COC=O)[C@H](OC(C)=O)CC[C@@]2(C)[C@@H]1C[C@@H](Nc1ccccc1)C1=CCOC1=O | 25.8 µM | 41 µM | 39.8 µM | 33.2 µM | 26.2 µM | 32.1 µM | 28.8 µM | 7.84 µM | 
C=C1[C@@H](OC(C)=O)C[C@@H]2[C@](C)(CO[Si](C)(C)C(C)(C)C)[C@H](OC(C)=O)CC[C@@]2(C)[C@@H]1C[C@@H](Nc1ccccc1C(=O)O)C1=CCOC1=O | 4.89 µM | 4.31 µM | 5.91 µM | 5.64 µM | 4.46 µM | 6.05 µM | 5.34 µM | 4.31 µM | 7
C=C1[C@@H](OC(C)=O)C[C@@H]2[C@](C)(COC=O)[C@H](OC(C)=O)CC[C@@]2(C)[C@@H]1C[C@@H](Nc1ccc(OC)c(OC)c1)C1=CCOC1=O | > 50 µM | > 50 µM | > 50 µM | 48.2 µM | > 50 µM | > 50 µM | 42.8 µM | 25.8 µM | 
C=C1CC[C@@H]2[C@](C)(CO)[C@H](O)CC[C@@]2(C)[C@@H]1C/C=C1/C(=O)OC[C@H]1O [ANDROGRAPHOLIDE] | 12.2 µM | 45.4 µM | 33.9 µM | 30.2 µM | 29.1 µM | 41.5 µM | 10.8 µM | 6.91 µM | 
Cc1c2ccncc2c(C)c2c1[nH]c1ccccc12 [ELLIPTECINE] | 2.13 µM | 2.42 µM | 2.11 µM | 2.04 µM | 2.18 µM | 2.2 µM | 2.59 µM | 1.87 µM | 
